The values that follow come from US9676760B2, “Fused heterocyclic compounds as ion channel modulators” (Gilead Sciences, Inc., priority 2011, dated 2017).

The target in one series is hERG potassium channel (Homo sapiens, UniProt Q12809). In words: hERG screening assay (PatchXpress, CHO cells). It counts as cell-based. Details: hERG: unit not given here. As to the method: Compounds were also tested for their effect to block the hERG K^+ channel.
Compounds were screened to test their activity in blocking the hERG potassium channel at AVIVA Biosciences (San Deigo, Calif., USA). The hERG channel is heterologously expressed in a CHO (Chinese Hamster Ovary) cell line. Cells were maintained with standard tissue culture procedures and stable channel expression was maintained with 500 μg/mL G418 in the culture medium. Cells were harvested for testing on the PatchXpress 7000A automated patch clamp with Accumax (Innovative Cell Technologies, San Diego, Calif.) to isolate single cells.
The following solutions were used for electrophysiological recordings. The external solution contained: 2 mM CaCl2; 2 mM MgCl2; 4 mM KCl; 150 mM NaCl; 10 mM Glucose; 10 mM HEPES (pH 7.4 with 1M NaOH; osmolarity, ˜310 mOsm).
hERG channels were activated when the voltage was first stepped to −50 mV for 300 ms from the −80 mV holding potential and then stepped to +20 mV for 5 seconds. At +20 mV the channels open and then largely inactivate, so the currents are relatively small. Upon returning to −50 mV from +20 mV, hERG currents transiently become much larger as inactivation is rapidly removed and then the channel closes. The first step to −50 mV for 300 ms was used as a baseline for measuring the peak amplitude during the step to −50 mV after channel activation. The peak tail current at −50 mV was measured both under control conditions and after addition of compound, each cell serving as its own control.
All compounds were prepared as 10 mM DMSO stocks in glass vials. Stock solutions were mixed by vigorous vortexing and sonication for about 2 minutes at room temperature. For testing, compounds were diluted in glass vials using an intermediate dilution step in pure DMSO and then further diluted to working concentrations in external solution. Dilutions were prepared no longer than 20 minutes before use.
For the electrophysiological recordings, after achieving the whole-cell configuration, cells were monitored for 90 seconds to assess stability and washed with external solution for 66 seconds. The voltage protocol described above was then applied to the cells every 12 seconds and throughout the whole procedure. Only cells with stable recording parameters and meeting specified health criteria were allowed to enter the compound addition procedure.
External solution containing 0.1% DMSO (vehicle) was applied to the cells first to establish the control peak current amplitude. After allowing the current to stabilize for 3 to 5 minutes, 1 μM and then 10 μM test compounds were applied. Each compound concentration was added 4 times and cells were kept in test solution until the effect of the compound reached steady state or for a maximum of 12 minutes. […] Washout in the external solution compartment was performed until the recovery of the current reached steady state.
(Block of hERG is tested as a sign of cardiac risk.)

For series [1], the target named is T1, wild-type human cardiac sodium channel, hNav1.5 (Homo sapiens, UniProt Q14524). The series can be described thus: Peak INa screening assay (tonic and use-dependent block). Particulars: compound at 1 μM. It counts as cell-based. The procedure, abridged:
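Whole-cell automated patch clamp (QPatch) at 23–25°C on HEK293 cells stably expressing hNav1.5 alpha subunit only, with CsF/CsCl pipette solution, pH 7.4. Compound at 1 μM in extracellular solution; bath Na+ could be cut to 20 mM with a nonpermeant cation. Tonic block measured at 0.1 Hz, use-dependent block at 3 Hz.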

The target in series [2] is T1, wild-type human cardiac sodium channel, hNav1.5. The series can be described thus: Late INa screening assay (QPatch whole cell patch clamp, HEK293). It counts as cell-based. The procedure, abridged: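 HEK293 stably expressing hNav1.5 without beta subunits, recorded at 23-25° C. Late current was induced by 10 μM tefluthrin. Cells were depolarized from −120 mV to −20 mV for 250 ms at 0.1 Hz. Compounds were tested at 1 μM in extracellular solution, with baseline taken in 0Na-ECF; output is percent block of late INa.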
(Patch clamp records ionic current or voltage across a cell membrane.)

For series [3], the system named is Female New Zealand rabbits. The series can be described thus: Ischemia-induced ST segment elevation in anesthetized rabbits. The class given is in vivo, rabbit. The method, then:
This study was undertaken to determine the anti-ischemic effects of compounds of the present disclosure in an in vivo rabbit model.
Female New Zealand rabbits (3.0-4.0 kg) were purchased from Western Oregon Rabbitry. Animals were housed on a 12-h light and dark cycle and received standard laboratory chow and water. All experiments were performed in accordance with the Guide for the Care and Use of Laboratory Animals published by The National Research Council and with the experimental protocol approved by the Institutional Animal Care Committee of Gilead Sciences, Inc.
Rabbits were anesthetized with ketamine (35 mg/kg) and xylazine (5 mg/kg) intramuscular injection (im). A tracheotomy was performed and the trachea was intubated with an endotracheal tube. The animal was ventilated with room air supplemented with oxygen using a pressure control animal ventilator (Kent Scientific Corp., Torrington, Conn.) at a respiratory rate of 40 strokes/min and peak inspiration pressure of 10 mmH2O, which was adjusted to keep blood gases and pH within the physiological range (iSTAT clinic analyzer, Heska Corp.; Waukesha, Wis.). The left femoral artery was cannulated for the measurement of blood pressure (BP). Blood samples were also withdrawn from femoral artery. The right external jugular vein was cannulated for drug/vehicle administration. Needle electrodes were inserted subcutaneously into the limbs for recording of the surface electrocardiogram (ECG). The heart was exposed via an incision in the 4th intercostal space (4th and/or 5th ribs were cut for a clear surgical vision). The chest was opened and a pericardial cradle was formed using 4 retractors. A coronary artery occluder, comprised of a snare made of 5 cm PE-10 tubing with a 6-0 Prolene polypropylene suture in it, was placed loosely around the left anterior descending artery (LAD) at its origin. Two unipolar electrodes, made with teflon coated silver wire attached to a small patch of filter paper, were attached on the surface of the ischemic and normal regions of the left ventricle to record epicardial electrocardiogram. Reference electrodes were placed in the open incision of the neck. The body temperature of the animal was monitored via a rectal thermometer and maintained at 37-40° C. by adjusting the surface temperature of the surgical table. Regional ischemia (15 min) was induced by ligating the LAD followed by 15 min of reperfusion caused by releasing the ligation. The heart was excised at the end of the experiment and the LAD was re-ligated. The ischemic area was visualized by perfusing the heart with 1% Evans blue in saline and calculated as a percentage of total ventricular weight. Rabbits with ischemic area less than 10% or larger than 25% were excluded from the analysis. Animals were randomly assigned to vehicle and test compound groups. Test compounds was dissolved in 5% NMP, 30% PG, 45% PEG 400 and 20% de-ionized water (dH2O). Test compound was given as an iv bolus at 0.1, 0.2 and 0.4 mg/kg. After 30 min of dosing, the heart was subjected to 15 min of ischemia followed by 15 min of reperfusion.

For series [4], the target named is T2, hNav 1.1 sodium channel isoform (Homo sapiens, UniProt P35498).
T2 construct: expressed in transfected cells; host or cells: HEK293, transient transfection (Qiagen Superfect)
The series can be described thus: hNav1.1 whole-cell voltage-clamp assay. It counts as cell-based. The conditions noted are these: % Inhibition at 1 uM; use-dependent block, 10 Hz; read-out: NAV1.1* UDB-10HZ.

The target of series [5] is T3, hNav 1.2 sodium channel isoform (Homo sapiens, UniProt Q99250).
T3 construct: expressed in transfected cells
In words: hNav1.2 whole-cell voltage-clamp assay. The class given is cell-based. Particulars: use-dependent block, 10 Hz, read-out: NAV1.2* UDB-10HZ. As to the method:
Wild-type (WT) cDNA stably transfected in Chinese hamster ovary (CHO) cells is used to record INa. Unless otherwise noted, all reagents are purchased from Sigma-Aldrich (St Louis, Mo., U.S.A.).
Whole-cell voltage-clamp recordings are used to measure the biophysical properties of WT. […] Cells are allowed to stabilize for 10 min after establishment of the whole-cell configuration before current is measured. Series resistance is compensated 90% to assure that the command potential is reached within microseconds with a voltage error<2 mV. Leak currents are subtracted by using an online P/4 procedure and all currents are low-pass Bessel filtered at 5 kHz and digitized at 50 kHz.
For clarity, representative ramp currents are low pass filtered off-line at 50 Hz. Specific voltage-clamp protocols assessing channel activation, fast inactivation and availability during repetitive stimulation are used. Results are presented as mean±SEM.
Tonic block of peak current is measured using a step to −10 mV (20 ms) from a holding potential of −120 mV (0.2 Hz). Use-dependent block of peak current is measured during pulse number 300 of a pulse train (−10 mV, 5 ms, 300 pulses, 10 Hz or 25 Hz) from a holding potential of −120 mV. Two sequential pulse train stimulations are averaged to obtain mean current traces for each recording condition, which are then used for offline subtraction and analysis.
For use-dependent studies, cells are stimulated with depolarizing pulse trains (−10 mV, 5 ms, 300 pulses, 10 and 25 Hz) from a holding potential of −120 mV. Currents are then normalized to the peak current recorded in response to the first pulse in each frequency train. For tonic block studies, peak current is evaluated in response to a 20 ms depolarization to −10 mV (0.2 Hz). […] Results are presented as mean±SEM.
A stock solution of 10 mM compound of Formula I is prepared in 0.1 M HCl or DMSO. […] The final DMSO concentration was kept at 0.1% in all solutions. Direct application of the perfusion solution to the clamped cell is achieved using the Perfusion Pencil system (Automate, Berkeley, Calif.). Direct cell perfusion is driven by gravity at a flow rate of 350 μL/min using a 250 micron tip. This system sequesters the clamped cell within a perfusion stream and enables complete solution exchange within 1 second. The clamped cell is perfused continuously starting immediately after establishing the whole-cell configuration. Control currents are measured during control solution perfusion.
Solutions are perfused for three minutes prior to current recordings to allow equilibrium (tonic) drug block. Tonic block of peak currents is measured from this steady-state condition. Three sequential current traces are averaged to obtain a mean current for each recording. The mean current traces are utilized for offline analysis. Use-dependent block of peak current is measured during pulse number 300 of the pulse train, (−10 mV, 5 ms, 300 pulses, 10 Hz) from a holding potential of −120 mV.

The mark [6] stands for this setting: tonic block of peak INa, 0.1 Hz, read-out: Peak TB 1 μM.
Where [7] appears, read: use-dependent block of peak INa, 3 Hz, read-out: Peak UDB 1 μM.
[8] abbreviates: HEK293, % Inhibition at 1 uM, read-out: Late INa*.
Where [9] appears, read: HEK293, percent block of late INa, compound at 1 μM, 10 μM Tefluthrin, read-out: Late INa 1 μM.

T1 sequence (Q14524 whole entry): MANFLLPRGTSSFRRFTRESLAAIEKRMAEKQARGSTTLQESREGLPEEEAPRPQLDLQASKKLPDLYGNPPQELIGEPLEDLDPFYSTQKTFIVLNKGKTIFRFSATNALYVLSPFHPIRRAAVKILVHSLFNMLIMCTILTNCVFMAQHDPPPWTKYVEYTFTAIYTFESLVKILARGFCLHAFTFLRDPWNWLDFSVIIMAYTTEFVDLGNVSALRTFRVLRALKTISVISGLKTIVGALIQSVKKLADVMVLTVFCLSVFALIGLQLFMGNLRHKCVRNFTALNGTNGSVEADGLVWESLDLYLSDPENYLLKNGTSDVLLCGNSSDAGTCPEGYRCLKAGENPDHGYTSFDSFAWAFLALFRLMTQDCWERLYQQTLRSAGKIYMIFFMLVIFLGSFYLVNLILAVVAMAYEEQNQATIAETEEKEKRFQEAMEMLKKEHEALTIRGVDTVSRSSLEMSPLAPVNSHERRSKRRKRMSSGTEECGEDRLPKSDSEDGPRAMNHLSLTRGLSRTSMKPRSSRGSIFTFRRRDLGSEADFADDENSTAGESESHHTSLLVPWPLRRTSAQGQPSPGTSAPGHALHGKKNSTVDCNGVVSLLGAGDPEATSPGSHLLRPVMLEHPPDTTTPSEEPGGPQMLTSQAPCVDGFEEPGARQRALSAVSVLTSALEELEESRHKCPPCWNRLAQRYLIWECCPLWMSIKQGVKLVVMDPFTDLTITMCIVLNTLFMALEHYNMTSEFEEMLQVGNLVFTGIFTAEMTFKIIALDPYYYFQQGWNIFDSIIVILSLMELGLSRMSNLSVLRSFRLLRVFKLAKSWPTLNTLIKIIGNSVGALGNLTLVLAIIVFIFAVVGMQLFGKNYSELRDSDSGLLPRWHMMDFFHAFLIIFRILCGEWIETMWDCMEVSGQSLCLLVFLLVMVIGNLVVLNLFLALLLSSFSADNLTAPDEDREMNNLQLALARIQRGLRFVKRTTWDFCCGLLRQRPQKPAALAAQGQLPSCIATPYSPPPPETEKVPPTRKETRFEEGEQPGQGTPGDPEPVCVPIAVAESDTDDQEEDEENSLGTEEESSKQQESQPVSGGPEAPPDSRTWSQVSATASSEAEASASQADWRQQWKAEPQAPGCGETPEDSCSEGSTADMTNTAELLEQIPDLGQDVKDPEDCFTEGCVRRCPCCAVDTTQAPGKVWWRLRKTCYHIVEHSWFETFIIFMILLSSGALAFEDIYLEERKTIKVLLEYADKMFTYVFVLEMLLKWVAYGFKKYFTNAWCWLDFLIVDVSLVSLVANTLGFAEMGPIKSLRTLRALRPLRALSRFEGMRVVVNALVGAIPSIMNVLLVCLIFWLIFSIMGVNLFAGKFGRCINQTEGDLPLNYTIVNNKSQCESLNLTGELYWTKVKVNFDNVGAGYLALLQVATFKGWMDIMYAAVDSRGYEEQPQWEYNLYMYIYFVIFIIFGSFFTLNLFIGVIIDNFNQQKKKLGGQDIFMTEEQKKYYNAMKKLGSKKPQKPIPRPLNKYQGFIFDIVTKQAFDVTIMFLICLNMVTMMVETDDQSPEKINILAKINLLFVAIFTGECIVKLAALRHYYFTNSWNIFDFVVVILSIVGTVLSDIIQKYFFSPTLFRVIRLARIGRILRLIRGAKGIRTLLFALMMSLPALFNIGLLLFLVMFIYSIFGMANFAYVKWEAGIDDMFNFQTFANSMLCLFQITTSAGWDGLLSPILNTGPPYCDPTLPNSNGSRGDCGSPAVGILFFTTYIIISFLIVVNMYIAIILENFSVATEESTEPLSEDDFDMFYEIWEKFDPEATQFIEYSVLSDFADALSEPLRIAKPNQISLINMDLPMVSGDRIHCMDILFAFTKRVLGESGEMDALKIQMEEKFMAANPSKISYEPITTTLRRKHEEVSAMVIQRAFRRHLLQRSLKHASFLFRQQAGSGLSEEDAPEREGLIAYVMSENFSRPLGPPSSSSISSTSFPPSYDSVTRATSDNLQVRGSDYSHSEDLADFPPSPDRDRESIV
hERG potassium channel, sequence (Q12809 whole entry): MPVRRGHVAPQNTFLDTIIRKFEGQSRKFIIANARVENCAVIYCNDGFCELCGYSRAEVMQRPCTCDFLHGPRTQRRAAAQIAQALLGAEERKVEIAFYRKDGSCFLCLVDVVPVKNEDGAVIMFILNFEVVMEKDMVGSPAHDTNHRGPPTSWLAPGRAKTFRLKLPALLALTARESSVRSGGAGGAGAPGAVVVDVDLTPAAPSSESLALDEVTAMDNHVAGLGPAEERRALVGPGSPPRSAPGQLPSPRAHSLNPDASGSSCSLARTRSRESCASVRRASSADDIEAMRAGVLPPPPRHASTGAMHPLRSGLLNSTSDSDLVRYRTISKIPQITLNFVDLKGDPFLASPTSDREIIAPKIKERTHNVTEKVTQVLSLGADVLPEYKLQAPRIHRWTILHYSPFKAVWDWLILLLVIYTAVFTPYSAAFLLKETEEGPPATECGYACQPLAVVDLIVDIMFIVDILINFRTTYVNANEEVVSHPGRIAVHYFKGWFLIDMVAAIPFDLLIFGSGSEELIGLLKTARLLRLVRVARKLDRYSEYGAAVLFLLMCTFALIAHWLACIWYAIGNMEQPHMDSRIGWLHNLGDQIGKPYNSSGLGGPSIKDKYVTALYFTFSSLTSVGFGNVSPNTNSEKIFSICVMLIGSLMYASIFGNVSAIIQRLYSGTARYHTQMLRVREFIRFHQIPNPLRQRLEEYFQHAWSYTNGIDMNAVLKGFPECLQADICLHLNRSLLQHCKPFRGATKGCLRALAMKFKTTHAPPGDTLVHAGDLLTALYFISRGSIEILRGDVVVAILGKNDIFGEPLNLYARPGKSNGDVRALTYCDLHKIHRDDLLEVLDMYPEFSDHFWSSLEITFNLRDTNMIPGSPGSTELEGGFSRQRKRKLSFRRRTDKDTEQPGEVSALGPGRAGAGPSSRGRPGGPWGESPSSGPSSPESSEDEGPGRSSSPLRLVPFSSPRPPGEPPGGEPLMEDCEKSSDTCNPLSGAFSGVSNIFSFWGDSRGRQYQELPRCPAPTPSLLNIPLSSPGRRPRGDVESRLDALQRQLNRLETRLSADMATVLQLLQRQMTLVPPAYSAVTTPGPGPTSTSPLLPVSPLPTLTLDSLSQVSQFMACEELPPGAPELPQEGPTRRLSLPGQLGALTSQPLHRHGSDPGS
T3 sequence (Q99250 whole entry, canonical isoform): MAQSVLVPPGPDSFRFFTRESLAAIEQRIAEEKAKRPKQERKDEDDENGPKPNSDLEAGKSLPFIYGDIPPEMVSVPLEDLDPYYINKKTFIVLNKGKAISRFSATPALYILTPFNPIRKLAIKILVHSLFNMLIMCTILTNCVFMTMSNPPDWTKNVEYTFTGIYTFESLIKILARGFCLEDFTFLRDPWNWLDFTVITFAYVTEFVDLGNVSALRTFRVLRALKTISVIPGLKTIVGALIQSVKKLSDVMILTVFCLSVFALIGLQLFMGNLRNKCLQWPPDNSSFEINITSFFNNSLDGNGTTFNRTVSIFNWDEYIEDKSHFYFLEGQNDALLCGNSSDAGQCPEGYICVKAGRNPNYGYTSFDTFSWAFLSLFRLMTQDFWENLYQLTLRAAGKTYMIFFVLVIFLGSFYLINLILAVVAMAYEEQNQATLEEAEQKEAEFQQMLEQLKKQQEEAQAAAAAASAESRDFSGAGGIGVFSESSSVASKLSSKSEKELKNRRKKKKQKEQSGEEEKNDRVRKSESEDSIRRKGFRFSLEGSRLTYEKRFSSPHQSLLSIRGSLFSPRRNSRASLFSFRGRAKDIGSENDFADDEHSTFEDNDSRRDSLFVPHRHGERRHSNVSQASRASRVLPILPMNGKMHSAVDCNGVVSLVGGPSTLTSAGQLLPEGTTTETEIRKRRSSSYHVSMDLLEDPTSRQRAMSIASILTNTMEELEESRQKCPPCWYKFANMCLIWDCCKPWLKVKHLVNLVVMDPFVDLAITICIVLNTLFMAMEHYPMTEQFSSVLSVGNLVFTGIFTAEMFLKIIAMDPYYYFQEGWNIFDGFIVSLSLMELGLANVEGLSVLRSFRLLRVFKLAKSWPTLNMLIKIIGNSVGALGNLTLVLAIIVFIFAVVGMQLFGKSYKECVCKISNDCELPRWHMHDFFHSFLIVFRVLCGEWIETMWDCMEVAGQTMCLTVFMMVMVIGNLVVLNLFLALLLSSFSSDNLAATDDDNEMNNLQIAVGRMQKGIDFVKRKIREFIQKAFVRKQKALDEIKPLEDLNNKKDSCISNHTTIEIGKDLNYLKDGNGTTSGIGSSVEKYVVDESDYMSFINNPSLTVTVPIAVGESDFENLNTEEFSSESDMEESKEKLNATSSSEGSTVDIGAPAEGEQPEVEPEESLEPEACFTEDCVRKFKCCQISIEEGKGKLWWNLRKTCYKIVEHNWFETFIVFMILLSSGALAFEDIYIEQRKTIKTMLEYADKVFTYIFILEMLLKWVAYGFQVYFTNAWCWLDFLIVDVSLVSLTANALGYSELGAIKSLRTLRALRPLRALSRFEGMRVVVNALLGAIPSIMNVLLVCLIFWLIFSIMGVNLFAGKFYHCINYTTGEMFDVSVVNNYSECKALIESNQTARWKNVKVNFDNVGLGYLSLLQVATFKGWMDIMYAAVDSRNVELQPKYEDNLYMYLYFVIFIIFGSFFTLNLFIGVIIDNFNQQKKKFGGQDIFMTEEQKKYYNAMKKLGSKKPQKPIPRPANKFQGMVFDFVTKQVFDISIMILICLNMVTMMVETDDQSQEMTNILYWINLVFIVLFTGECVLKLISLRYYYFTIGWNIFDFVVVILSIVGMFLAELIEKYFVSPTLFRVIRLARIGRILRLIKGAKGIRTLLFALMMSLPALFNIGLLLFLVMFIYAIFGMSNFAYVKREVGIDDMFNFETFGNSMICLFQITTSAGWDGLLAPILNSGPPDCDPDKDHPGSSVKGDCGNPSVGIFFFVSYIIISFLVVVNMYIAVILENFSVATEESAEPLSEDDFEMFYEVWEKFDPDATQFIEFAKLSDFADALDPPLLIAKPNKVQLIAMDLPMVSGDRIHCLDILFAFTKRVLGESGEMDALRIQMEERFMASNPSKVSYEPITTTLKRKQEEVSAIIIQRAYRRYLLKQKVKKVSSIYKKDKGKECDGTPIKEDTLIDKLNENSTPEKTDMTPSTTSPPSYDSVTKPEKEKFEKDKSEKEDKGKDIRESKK

As to `Cc1cccc(CN2CCOc3ccc(-c4ccc(OC(F)(F)F)cc4)cc3C2=O)n1` [II-17, 4-((6-methylpyridin-2-yl)methyl)-7-(4-(trifluoromethoxy)phenyl)-3,4-dihydrobenzo[f][1,4]oxazepin-5(2H)-one], the hERG on hERG potassium channel is on record as below 10. Also, the inhibition at 1 µM in series [1] (setting [6]) worked out at 47%; in series [1] (setting [7]), 46%; in series [2] (setting [8]), 59%; in series [2] (setting [9]), 59%.

With `O=C1c2cc(-c3ccc(C(F)(F)F)cc3)ccc2OCCN1Cc1ncccn1` [II-61, 4-(pyrimidin-2-ylmethyl)-7-(4-(trifluoromethyl)phenyl)-3,4-dihydrobenzo[f][1,4]oxazepin-5(2H)-one], at hERG potassium channel, the hERG is below 10. Further, in series [3] (0.28 μM plasma concentration, iv bolus, 15 min ischemia), the “area under curve (AUC) for the ST segment height reduced (vs. control)” value was 38%. The “effect on blood pressure (BP), heart rate (HR) and ECG intervals prior to the ischemia” value in series [3] (at the plasma concentration levels studied) is given as “no significant effect”. For the same compound, the “ischemia-induced ST elevation” value in series [3] (iv bolus 30 min before 15 min ischemia) is reported as “dose-dependently prevented”.

For the compound `Cc1ccnc(CN2CCOc3ccc(-c4ccc(OC(F)(F)F)cc4)cc3C2=O)n1` [II-138, 4-((4-methylpyrimidin-2-yl)methyl)-7-(4-(trifluoromethoxy)phenyl)-3,4-dihydrobenzo[f][1,4]oxazepin-5(2H)-one], the inhibition at 1 µM in series [1] (setting [6]) was determined as 16%; in series [1] (setting [7]), 23%; in series [2] (setting [8]), 47%; in series [2] (setting [9]), 47%; in series [4] it was 21%; in series [5] it was 40%.

Turning to `O=C1c2cc(-c3ccc(OC(F)(F)F)cc3)ncc2OCCN1Cc1ccccc1` [XII-1, 4-benzyl-7-(4-(trifluoromethoxy)phenyl)-3,4-dihydropyrido[4,3-f][1,4]oxazepin-5(2H)-one], the inhibition at 1 µM in series [1] (setting [6]) was 25%; in series [1] (setting [7]) it was 21%; in series [2] (setting [8]), 53%; in series [2] (setting [9]), 53%; in series [4] it was -1%; in series [5] it was -4%.
